pIC50: −log10 of the molar value.
What was measured:
[1] = test system: mThy1-hAPP751 APPtg mouse model of AD; test: Immunoblot of Aβ42 species in brain membrane fraction of APPtg mice; format: in vivo; details: vs vehicle-treated APPtg mice
[2] = test system: mThy1-hAPP751 APPtg mouse model of AD; test: Aβ immunostaining of plaques in frontal cortex and hippocampus of APPtg mice; format: in vivo; details: same treatments as E16
[3] = target: Aβ42 seeding-mediated fibril growth (Homo sapiens, UniProt P05067); test: Aβ42 seeding polymerization assay; format: biochemical; details: for fibril growth and number of amyloid fibrils by TEM: 3 hours incubation of seeds and monomers with compound; for inhibition at 10 µM: read-out: inhibition of seeded fibril growth (seeding capacity of short fibrils)
[4] = test system: mThy1-hAPP751 APPtg mouse model of AD; test: Aβ42 ELISA in APPtg mouse brain; format: in vivo; details: vs vehicle-treated APPtg mice
[5] = test system: Slack (Slo2.2) channels; details: ref Yang et al., 2006; cited from earlier work
[6] = Pharmacokinetics and brain distribution after single administration; format: in vivo, C57/BL6 mice
[7] = test system: mThy1-hAPP751 APPtg mouse model of AD; test: Immunohistochemistry of synaptophysin, MAP2, NeuN and GFAP in APPtg mouse brain; format: in vivo; details: for synapse loss (SYN-immunoreactivity) in the frontal cortex / synapse loss (SYN-immunoreactivity) in the hippocampus: vs APPtg mice treated with PBS
[8] = test system: mThy1-hAPP751 APPtg mouse model of AD; test: Electron microscopy of neuropil and amyloid in APPtg mouse brain; format: in vivo; details: same treatments as E16
[9] = target: monomeric Aβ42 (Homo sapiens, UniProt P05067); test: Fibrillization of monomeric Aβ42; format: biochemical
[10] = target: protofibrillar Aβ42 (Homo sapiens, UniProt P05067); test: Conversion of Aβ42 protofibrils into mature fibrils; format: biochemical; details: 48 hours, ThT
[11] = test system: primary cortical neurons; details: 0.5, 5, 10, 20 and 50 μM, 24 hours, MTT
[12] = test system: Aβ; details: ref Colombo et al., 2009; cited from earlier work

monomeric Aβ42, sequence (P05067 672-713 limits assumed): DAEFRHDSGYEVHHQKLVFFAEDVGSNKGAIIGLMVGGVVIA
Aβ42 seeding-mediated fibril growth, sequence (P05067 672-713 limits assumed): as above
protofibrillar Aβ42, sequence (P05067 672-713 limits assumed): as above

SMILES: Oc1c(Cl)cc(Cl)cc1Sc1cc(Cl)cc(Cl)c1O [bithionol]
- levels of Aβ42 monomers and intermediate species (immunoblot, 82E1) [1]: significant reduction
- Aβ42-immunoreactivity in the hippocampus (% area of neuropil) vs vehicle APPtg [2]: significant decrease
- pIC50 [3]: 5.27
- fibril growth and number of amyloid fibrils by TEM [3]: significant inhibition of fibril growth
- inhibition at 10 µM [3]: 60 to 80%
- Aβ42 levels by ELISA, guanidine-HCl brain extractions [4]: significant and dramatic reduction
- Aβ42 levels by ELISA, membrane fractions [4]: significant and dramatic reduction
- activation of Slack channels [5]: robust activator of Slack channels
- half-life ([6]; C57/BL6, mouse, brain, iv, 10 mg/kg): 1.77 h
- half-life ([6]; C57/BL6, mouse, plasma, iv, 10 mg/kg): 7.62 h
- synapse loss (SYN-immunoreactivity) in the frontal cortex [7]: significantly reversed
- synapse loss (SYN-immunoreactivity) in the hippocampus [7]: significantly reversed
- GFAP immunoreactivity (astroglial reactivity) in the frontal cortex ([7]; vs vehicle-treated APPtg mice): strong and significant reduction
- MAP2 immunoreactivity (neuronal damage) in the frontal cortex ([7]; vs vehicle-treated APPtg mice): reversion of the damage
- MAP2 immunoreactivity (neuronal damage) in the hippocampus ([7]; vs vehicle-treated APPtg mice): reversion of the damage
- NeuN immunoreactivity in the frontal cortex ([7]; vs vehicle-treated APPtg mice): increase
- amyloid fibrils in neuropil by electron microscopy [8]: only few fibrillar aggregates
- status of axons/neurites in neuropil by electron microscopy [8]: axons were comparable to controls
- pIC50 [9]: 5.29

SMILES: Oc1c(Cl)cc(Cl)c(Cl)c1Cc1c(O)c(Cl)cc(Cl)c1Cl [hexachlorophene]
- levels of Aβ42 monomers and intermediate species (immunoblot, 82E1) [1]: comparable to that observed in the vehicle-treated APPtg mice
- pIC50 [3]: 5.23
- fibril growth and number of amyloid fibrils by TEM [3]: significant inhibition of fibril growth
- inhibition at 10 µM [3]: 60 to 80%
- Aβ42 levels by ELISA, guanidine-HCl brain extractions [4]: did not significantly affect
- Aβ42 levels by ELISA, membrane fractions [4]: did not significantly affect
- Kp ([6]; C57/BL6, mouse, in vivo, iv, 10 mg/kg): 0.5
- brain penetration ([6]; single IV administration 10 mg/kg): 50%
- pIC50 [9]: 5.30

SMILES: O=C1c2c(O)ccc(O)c2C(=O)c2c(NCCNCCO)ccc(NCCNCCO)c21 [mitoxantrone]
- levels of Aβ42 monomers and intermediate species (immunoblot, 82E1) [1]: significant reduction
- pIC50 [3]: 5.77
- fibril growth and number of amyloid fibrils by TEM [3]: significant inhibition of fibril growth
- inhibition at 10 µM [3]: 80 to 90%
- inhibition of protofibril to fibril conversion [10]: > 80%
- Aβ42 levels by ELISA, guanidine-HCl brain extractions [4]: significant and dramatic reduction
- Aβ42 levels by ELISA, membrane fractions [4]: significant and dramatic reduction
- effect of compound alone on cellular viability of neurons [11]: significant reduction of the cellular viability only at high concentrations
- synapse loss (SYN-immunoreactivity) in the frontal cortex [7]: significantly reversed
- synapse loss (SYN-immunoreactivity) in the hippocampus [7]: significantly reversed
- MAP2 immunoreactivity (neuronal damage) in the frontal cortex ([7]; vs vehicle-treated APPtg mice): reversion of the damage
- MAP2 immunoreactivity (neuronal damage) in the hippocampus ([7]; vs vehicle-treated APPtg mice): reversion of the damage
- NeuN immunoreactivity in the frontal cortex ([7]; vs vehicle-treated APPtg mice): increase
- amyloid fibrils in neuropil by electron microscopy [8]: only few fibrillar aggregates
- status of axons/neurites in neuropil by electron microscopy [8]: axons were comparable to controls
- Aβ oligomerization and fibril formation [12]: can block Aβ oligomerization and fibril formation
- pIC50 [9]: 5.60

Reference: PMC4323687 (Neurobiology of disease, 2014)
